# Experimental data from patent US20110070329A1, “1-tert-Butylcyclohexanecarboxamide and uses thereof as cooling compounds” (priority 2009, published 2011).
# Entries after “also recorded” stand apart in the source; their conditions may differ.
# Assays:
# [1] = Flavor evaluation, tasted in water at 10 ppm
# From the text: After expectorating, cooling began to build over time. The residual cooling (approx. five minutes) after expectorating earned a rating of 4 while when the cooler was in mouth, it was rated a 1 (on a scale of 1 to 9) when tasted in water at 10 ppm.
# [2] = Evaluation of cooler mixed with fondant
# From the text: In this example, Structure III was mixed with a fondant, commercially available from Confectionary House, Troy, N.Y., at levels listed in Table 1.
# [3] = Chewing gum evaluation by trained descriptive analysis panel; conditions: level 0.20%
# Protocol: The following gum base formulation was prepared: […]
# Structure III by itself at levels detailed in the Table III was blended with the gum base in a Sigma mixer. The resultant chewing gum blend was then manufactured into strips 1 inch in width and 0.1 inches in thickness. These strips were cut into lengths of 3 inches each.
# Samples were profiled by a highly trained descriptive analysis panel. The ballot consisted of the following terms: Total impact, total mint, cooling-mouth closed, cooling—breath in, nasal cooling—breathe in, throat irritation, bitterness, tongue irritation, numbing. Each attribute was rated at discrete time points including 1 minute, 3 minutes, 5 minutes, 10 minutes, 20 minutes, and 30 minutes.
compound,measurement,setting,value
"CC(C)(C)C1(C(=O)Nc2ccc(CC#N)cc2)CCCCC1 [Structure I, 1-tert-butyl-N-[4-(cyanomethyl)phenyl]cyclohexanecarboxamide]",flavor properties when tasted in water,[1],"bitter upfront, intense cooling upon expectorating"
"CC(C)(C)C1(C(=O)NCc2ccccn2)CCCCC1 [Structure III, 1-tert-butyl-N-[(pyridine-2-yl)methyl]cyclohexanecarboxamide]",COMMENTS (cooling evaluation in fondant),[2]; 50 ppm,"Slight cooling but quick onset, fills mouth"
same,COMMENTS (cooling evaluation in fondant),[2]; 100 ppm,Quick onset slight bitterness perceived
same,Time and Evaluation (chewing gum),[3]; 0-1 minute,"Sweet, citrus. Not cooling slightly bitter"
same,Time and Evaluation (chewing gum),[3]; 1-3 minutes,"Cooling is perceivable, but weak."
same,Time and Evaluation (chewing gum),[3]; 3-5 minutes,"bitterness., cooling very weak; also recorded: More cooling. Cooling when breathing. Little"
same,Time and Evaluation (chewing gum),[3]; 5-10 minutes,"Cooling is all over the mouth. Some bitterness; also recorded: is perceivable, very slight cooling again very; also recorded: weak"
same,Time and Evaluation (chewing gum),[3]; 10-20 minutes,"Cooling is all over the mouth but not very; also recorded: intensive., little to no cooling"
same,Time and Evaluation (chewing gum),[3]; 20-30 minutes,More bitterness is perceivable. Cooling is; also recorded: moderate and slowly starting to decline; also recorded: little to no cooling
same,flavor properties when tasted in water,[1],"did not have much cooling except on breath-in. After expectorating, cooling began to build over time"
same,residual cooling rating after expectorating,"[1]; approx. five minutes after expectorating, scale of 1 to 9",4
same,cooling rating when the cooler was in mouth,"[1]; in mouth, scale of 1 to 9",1
"CC(C)(C)C1(C(=O)NCCc2ccccn2)CCCCC1 [Structure II, 1-tert-butyl-N-[2-(pyridine-2-yl)ethyl]cyclohexanecarboxamide]",flavor properties when tasted in water,[1],"honey, cream soda, slightly bitter, cooling flavor properties after about thirty seconds"
